Reference: PubChem BioAssay AID1963846 (Molecular Pharmacology Branch, DTP, NCI, 2024)

Tested on: 454973-116-R2-J3-PDC complex spheroid viability
Assay: Anticancer human tumor 454973-116-R2-J3-PDC patient-derived pancreatic carcinoma cell line growth inhibition [POLQ]
Settings: for IC50: curve of first compound; for viability, T/C: stronger effect = lower value
Method in brief: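 Patient-derived tumour cells were co-cultured with HUVEC and mesenchymal stem cells as multicellular spheroids at 37 °C. They were treated with POLQ inhibitors (novobiocin, ART-558, RP6685) alone or combined with other agents. Top concentrations were at or near clinical Cmax (otherwise 10 microM; SN-38 at 1 microM), decreasing in half-log steps.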

[1] = second compound 0.0316 µM, first compound 0.0316 µM
[2] = second compound 0.0316 µM, first compound 0.1 µM
[3] = second compound 0.0316 µM, first compound 0.316 µM
[4] = second compound 0.0316 µM, first compound 1 µM
[5] = second compound 0.0316 µM, first compound 3.16 µM
[6] = second compound 0.0316 µM, first compound 10 µM
[7] = second compound 0.1 µM, first compound 0.0316 µM
[8] = second compound 0.1 µM, first compound 0.1 µM
[9] = second compound 0.1 µM, first compound 0.316 µM
[10] = second compound 0.1 µM, first compound 1 µM
[11] = second compound 0.1 µM, first compound 3.16 µM
[12] = second compound 0.1 µM, first compound 10 µM
[13] = second compound 0.316 µM, first compound 0.0316 µM
[14] = second compound 0.316 µM, first compound 0.1 µM
[15] = second compound 0.316 µM, first compound 0.316 µM
[16] = second compound 0.316 µM, first compound 1 µM
[17] = second compound 0.316 µM, first compound 3.16 µM
[18] = second compound 0.316 µM, first compound 10 µM
[19] = second compound 1 µM, first compound 0.0316 µM
[20] = second compound 1 µM, first compound 0.1 µM
[21] = second compound 1 µM, first compound 0.316 µM
[22] = second compound 1 µM, first compound 1 µM
[23] = second compound 1 µM, first compound 3.16 µM
[24] = second compound 1 µM, first compound 10 µM
[25] = second compound 3.16 µM, first compound 0.0316 µM
[26] = second compound 3.16 µM, first compound 0.1 µM
[27] = second compound 3.16 µM, first compound 0.316 µM
[28] = second compound 3.16 µM, first compound 1 µM
[29] = second compound 3.16 µM, first compound 3.16 µM
[30] = second compound 3.16 µM, first compound 10 µM
[31] = second compound 10 µM, first compound 0.0316 µM
[32] = second compound 10 µM, first compound 0.1 µM
[33] = second compound 10 µM, first compound 0.316 µM
[34] = second compound 10 µM, first compound 1 µM
[35] = second compound 10 µM, first compound 3.16 µM
[36] = second compound 10 µM, first compound 10 µM
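Further: spheroids exposed to drugs for seven days before measurement.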
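Wherever viability, T/C is given: percent viability relative to DMSO vehicle control wells taken as 100%.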

COc1ccc([C@@H](O)c2cc(-c3ncnc4cc(N5CCOCC5)ccc34)c(F)cc2Cl)nn1 + Nc1ccc(C#CCN(C(=O)Cc2ncc(C(F)(F)F)cc2C(F)(F)F)c2ccc(F)cc2)nn1
IC50 (second compound 0.0316 µM): > 10000 nM | IC50 (second compound 0.1 µM): > 10000 nM | IC50 (second compound 0.316 µM): > 10000 nM | IC50 (second compound 1 µM): > 10000 nM | IC50 (second compound 3.16 µM): > 10000 nM | IC50 (second compound 10 µM): > 10000 nM | viability, T/C [1]: 107% | viability, T/C [2]: 107% | viability, T/C [3]: 96.9% | viability, T/C [4]: 86.9% | viability, T/C [5]: 66.3% | viability, T/C [6]: 53.5% | viability, T/C [7]: 106% | viability, T/C [8]: 96.1% | viability, T/C [9]: 108% | viability, T/C [10]: 90.3% | viability, T/C [11]: 69.2% | viability, T/C [12]: 49.8% | viability, T/C [13]: 107% | viability, T/C [14]: 107% | viability, T/C [15]: 102% | viability, T/C [16]: 85.8% | viability, T/C [17]: 73.9% | viability, T/C [18]: 52.4% | viability, T/C [19]: 107% | viability, T/C [20]: 106% | viability, T/C [21]: 104% | viability, T/C [22]: 92.3% | viability, T/C [23]: 79.4% | viability, T/C [24]: 59.9% | viability, T/C [25]: 102% | viability, T/C [26]: 107% | viability, T/C [27]: 116% | viability, T/C [28]: 93.9% | viability, T/C [29]: 68.5% | viability, T/C [30]: 56.5% | viability, T/C [31]: 120% | viability, T/C [32]: 119% | viability, T/C [33]: 118% | viability, T/C [34]: 93.7% | viability, T/C [35]: 80.3% | viability, T/C [36]: 64.4%

C=CCn1c(=O)c2cnc(Nc3ccc(N4CCN(C)CC4)cc3)nc2n1-c1cccc(C(C)(C)O)n1 + Cc1cccc(N(C)C(=O)C2C(O)CCN2c2nc(C)cc(C(F)(F)F)c2C#N)c1
IC50 (second compound 0.0316 µM): 470 nM | IC50 (second compound 0.1 µM): 464 nM | IC50 (second compound 0.316 µM): 449 nM | IC50 (second compound 1 µM): 481 nM | IC50 (second compound 3.16 µM): 479 nM | IC50 (second compound 10 µM): 452 nM | viability, T/C (second compound 0.0316 µM, first compound 0.00316 µM): 109% | viability, T/C (second compound 0.0316 µM, first compound 0.01 µM): 103% | viability, T/C [1]: 105% | viability, T/C [2]: 106% | viability, T/C [3]: 71.5% | viability, T/C [4]: 9.25% | viability, T/C (second compound 0.1 µM, first compound 0.00316 µM): 98% | viability, T/C (second compound 0.1 µM, first compound 0.01 µM): 104% | viability, T/C [7]: 102% | viability, T/C [8]: 108% | viability, T/C [9]: 70.7% | viability, T/C [10]: 8.44% | viability, T/C (second compound 0.316 µM, first compound 0.00316 µM): 96.6% | viability, T/C (second compound 0.316 µM, first compound 0.01 µM): 98.9% | viability, T/C [13]: 103% | viability, T/C [14]: 103% | viability, T/C [15]: 68.4% | viability, T/C [16]: 7.81% | viability, T/C (second compound 1 µM, first compound 0.00316 µM): 113% | viability, T/C (second compound 1 µM, first compound 0.01 µM): 97.3% | viability, T/C [19]: 104% | viability, T/C [20]: 110% | viability, T/C [21]: 74.1% | viability, T/C [22]: 7.99% | viability, T/C (second compound 3.16 µM, first compound 0.00316 µM): 112% | viability, T/C (second compound 3.16 µM, first compound 0.01 µM): 106% | viability, T/C [25]: 99.7% | viability, T/C [26]: 102% | viability, T/C [27]: 72.8% | viability, T/C [28]: 9.03% | viability, T/C (second compound 10 µM, first compound 0.00316 µM): 105% | viability, T/C (second compound 10 µM, first compound 0.01 µM): 105% | viability, T/C [31]: 97% | viability, T/C [32]: 98.8% | viability, T/C [33]: 68.5% | viability, T/C [34]: 8.81%

COc1cc(C2c3cc4c(cc3C(OC3OC5COC(C)OC5C(O)C3O)C3COC(=O)C23)OCO4)cc(OC)c1O (stereo unspecified) + Cc1cccc(N(C)C(=O)C2C(O)CCN2c2nc(C)cc(C(F)(F)F)c2C#N)c1
IC50 (second compound 0.0316 µM): 1500 nM | IC50 (second compound 0.1 µM): 1520 nM | IC50 (second compound 0.316 µM): 1360 nM | IC50 (second compound 1 µM): 1300 nM | IC50 (second compound 3.16 µM): 1070 nM | IC50 (second compound 10 µM): 886 nM | viability, T/C [1]: 97.9% | viability, T/C [2]: 108% | viability, T/C [3]: 87.6% | viability, T/C [4]: 66.1% | viability, T/C [5]: 23.4% | viability, T/C [6]: 10.1% | viability, T/C [7]: 102% | viability, T/C [8]: 99.5% | viability, T/C [9]: 89.6% | viability, T/C [10]: 65.8% | viability, T/C [11]: 24% | viability, T/C [12]: 11.7% | viability, T/C [13]: 101% | viability, T/C [14]: 102% | viability, T/C [15]: 87.7% | viability, T/C [16]: 61.5% | viability, T/C [17]: 21.8% | viability, T/C [18]: 9.93% | viability, T/C [19]: 111% | viability, T/C [20]: 104% | viability, T/C [21]: 88.3% | viability, T/C [22]: 60.6% | viability, T/C [23]: 21.1% | viability, T/C [24]: 11.1% | viability, T/C [25]: 106% | viability, T/C [26]: 92.9% | viability, T/C [27]: 82.1% | viability, T/C [28]: 52.5% | viability, T/C [29]: 23.1% | viability, T/C [30]: 13.2% | viability, T/C [31]: 111% | viability, T/C [32]: 105% | viability, T/C [33]: 78.5% | viability, T/C [34]: 47% | viability, T/C [35]: 21.7% | viability, T/C [36]: 10.5%
